# From patent US20060069132A1, “Azolecarboxamide herbicides” (priority 2004, published 2006)
# Tests used:
# blackgrass = assay: Test B postemergence herbicide test; format: in vivo, Alopecurus myosuroides; conditions: scale 0 (no effect) to 100 (complete control); for Plant response rating, Blackgrass: visual rating after 13 to 15 days
# Procedure, shortened: (§1)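 Each value is a visual 0–100 response rating taken against controls 13 to 15 days after treatment in the greenhouse. Plants received formulated chemical postemergence at the 1- to 4-leaf stage or, in flooded paddy, at the 2-leaf stage.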
# pigweed = assay: Test B pre-/postemergence herbicide test; format: in vivo, Amaranthus retroflexus
# Procedure, shortened: (§2)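 Herbicidal effect was judged by eye on a 0–100 scale after plants stood 13 to 15 days in the greenhouse following pre- or postemergence treatment with surfactant-containing formulations.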
# morningglory = assay: Test B pre-/postemergence herbicide test; format: in vivo, Ipomoea coccinea
# Procedure, shortened: (§3)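 Evaluation is visual, comparing treated with control plants on a scale where 0 means no effect and 100 means full control. Treatments were preemergence, or postemergence on seedlings 2–18 cm tall, and held 13–15 days in the greenhouse.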
# velvetleaf = assay: Test B pre-/postemergence herbicide test; format: in vivo, Abutilon theophrasti
# Procedure, shortened: as §2
# barnyardgrass = assay: Test B flooded paddy test; format: in vivo, Echinochloa crus-galli; conditions: 1000 g ai/ha, visual rating, scale 0 to 100 (0 no effect, 100 complete control), 13 to 15 days
# Procedure, shortened: as §1
# wild oat = assay: Test B postemergence herbicide test; format: in vivo, Avena fatua; conditions: scale 0 (no effect) to 100 (complete control); for Plant response rating, Oat, Wild: visual rating after 13 to 15 days
# Procedure, shortened: (§4)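 Read-out: visual comparison with controls, scored 0 to 100, where 100 means complete control and 0 no effect. Formulated chemicals were applied postemergence to plants 2–18 cm tall (1- to 4-leaf), or to flooded-paddy plants at the 2-leaf stage, then held 13 to 15 days under glass.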
# ducksalad = assay: Test B flooded paddy test; format: in vivo, Heteranthera limosa; conditions: 1000 g ai/ha, visual rating, scale 0 to 100 (0 no effect, 100 complete control), 13 to 15 days
# Procedure, shortened: as §1
# [1] = tested on: small flower umbrella sedge; assay: Test B flooded paddy test; format: in vivo, Cyperus difformis; conditions: 1000 g ai/ha, visual rating, scale 0 to 100 (0 no effect, 100 complete control), 13 to 15 days
# Procedure, shortened: as §1
# rice = assay: Test B flooded paddy test; format: in vivo, Oryza sativa; conditions: 1000 g ai/ha, visual rating, scale 0 to 100 (0 no effect, 100 complete control), 13 to 15 days
# Procedure, shortened: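 Treated at 2-leaf (paddy) or 1–4-leaf, 2–18 cm (postemergence); greenhouse 13–15 d; visual score vs control, 0 none to 100 complete control; dash = not tested.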
# wheat = assay: Test B postemergence herbicide test; format: in vivo, Triticum aestivum; design: key to Wheat plant response rating: 0 = no effect, 100 = complete control; conditions: scale 0 (no effect) to 100 (complete control); for Plant response rating, Wheat: Postemergence, visual rating after 13 to 15 days; for Wheat plant response rating: postemergence, visual rating
# Procedure, shortened: as §4
# giant foxtail = assay: Test B pre-/postemergence herbicide test; format: in vivo, Setaria faberi
# Procedure, shortened: as §2
# cocklebur = assay: Test B pre-/postemergence herbicide test; format: in vivo, Xanthium strumarium
# Procedure, shortened: as §3
# lambsquarters = assay: Test B pre-/postemergence herbicide test; format: in vivo, Chenopodium album
# Procedure, shortened: as §2
# Surinam grass = assay: Test B pre-/postemergence herbicide test; format: in vivo, Urochloa decumbens
# Procedure, shortened: as §2
# corn = assay: Test B pre-/postemergence herbicide test; format: in vivo, Zea mays
# Procedure, shortened: as §2
# [2] = postemergence, 125 g ai/ha, visual rating
# [3] = Postemergence, 500 g ai/ha, visual rating after 13 to 15 days, scale 0 (no effect) to 100 (complete control)
# [4] = postemergence, 125 g ai/ha, visual rating, scale 0 (no effect) to 100 (complete control)
# [5] = preemergence, 125 g ai/ha, 0 to 100 scale, 0 is no effect, 100 is complete control
# [6] = Preemergence, 500 g ai/ha, scale 0 to 100
# [7] = Postemergence, 125 g ai/ha, scale 0 (no effect) to 100 (complete control)
# [8] = postemergence, 500 g ai/ha, visual rating
# [9] = 125 g ai/ha, 0 = no effect, 100 = complete control, preemergence
# [10] = 500 g ai/ha, visual rating, 0 = no effect, 100 = complete control, preemergence
# [11] = postemergence, 500 g ai/ha, visual rating, scale 0 (no effect) to 100 (complete control)
smiles,measurement,setting,value
CCn1nc(C(C)(C)C)cc1C(=O)Nc1cccc(C(=O)NCC(C)C)c1 [Compound 61],"Plant response rating, Blackgrass","blackgrass; Postemergence, 500 g ai/ha",0
same,Blackgrass plant response rating,blackgrass; [2],0
same,"Plant response rating, Pigweed",pigweed; [3],60
same,Pigweed plant response rating,pigweed; [4],20
same,"Plant response rating, Pigweed",pigweed; [5],80
same,"Plant response rating, Morningglory",morningglory; [3],50
same,Morningglory plant response rating,morningglory; [4],20
same,"Plant response rating, Velvetleaf",velvetleaf; [3],70
same,Velvetleaf plant response rating,velvetleaf; [4],30
same,"Plant response rating, Velvetleaf",velvetleaf; [5],70
same,Barnyardgrass plant response rating,barnyardgrass,30
same,"Plant response rating, Oat, Wild","wild oat; Postemergence, 500 g ai/ha",20
same,"Oat, Wild plant response rating",wild oat; [2],20
same,Ducksalad plant response rating,ducksalad,80
same,"Sedge, Umbrella plant response rating",[1],60
same,Rice plant response rating,rice,0
same,"Plant response rating, Wheat",wheat; 500 g ai/ha,10
same,Wheat plant response rating,wheat; 125 g ai/ha,10
same,"Plant response rating, Foxtail, Giant",giant foxtail; [3],30
same,"Foxtail, Giant plant response rating",giant foxtail; [6],80
same,"Foxtail, Giant plant response rating",giant foxtail; [4],20
same,"Plant response rating, Foxtail, Giant",giant foxtail; [5],20
same,"Plant response rating, Cocklebur",cocklebur; [3],100
same,Cocklebur plant response rating,cocklebur; [6],0
same,Cocklebur plant response rating,cocklebur; [4],60
same,"Plant response rating, Cocklebur",cocklebur; [5],0
same,"Plant response rating, Lambsquarters",lambsquarters; [3],100
same,Lambsquarters plant response rating,lambsquarters; [4],90
same,"Plant response rating, Lambsquarters",lambsquarters; [5],100
same,"Plant response rating, Surinam Grass",Surinam grass; [3],30
same,Surinam Grass plant response rating,Surinam grass; [4],20
same,"Plant response rating, Surinam Grass",Surinam grass; [5],10
same,"Plant response rating, Corn",corn; [3],40
same,Corn plant response rating,corn; [6],10
same,Corn plant response rating,corn; [4],20
same,"Plant response rating, Corn",corn; [5],0
CCn1nc(C(C)(C)C)cc1C(=O)Nc1cccc(C(=O)NC2CC2)c1 [Compound 44],Blackgrass plant response rating,"blackgrass; Postemergence, 125 g ai/ha",10
same,"Plant response rating, Blackgrass","blackgrass; Postemergence, 500 g ai/ha",20
same,"Plant response rating, Pigweed",pigweed; [3],100
same,Pigweed plant response rating,pigweed; [6],100
same,"Plant response rating, Pigweed",pigweed; [5],100
same,Morningglory plant response rating,morningglory; [7],30
same,"Plant response rating, Morningglory",morningglory; [3],90
same,Morningglory plant response rating,morningglory; [6],10
same,"Plant response rating, Morningglory",morningglory; [5],0
same,"Plant response rating, Velvetleaf",velvetleaf; [3],80
same,Velvetleaf plant response rating,velvetleaf; [6],100
same,"Plant response rating, Velvetleaf",velvetleaf; [5],20
same,Barnyardgrass plant response rating,barnyardgrass,70
same,"Oat, Wild plant response rating","wild oat; Postemergence, 125 g ai/ha",20
same,"Plant response rating, Oat, Wild","wild oat; Postemergence, 500 g ai/ha",20
same,Ducksalad plant response rating,ducksalad,70
same,"Sedge, Umbrella plant response rating",[1],70
same,Rice plant response rating,rice,70
same,"Plant response rating, Wheat",wheat; 500 g ai/ha,20
same,"Foxtail, Giant plant response rating",giant foxtail; [7],20
same,"Plant response rating, Foxtail, Giant",giant foxtail; [3],30
same,"Foxtail, Giant plant response rating",giant foxtail; [6],70
same,"Plant response rating, Foxtail, Giant",giant foxtail; [5],0
same,Cocklebur plant response rating,cocklebur; [7],40
same,"Plant response rating, Cocklebur",cocklebur; [3],80
same,Cocklebur plant response rating,cocklebur; [6],20
same,Lambsquarters plant response rating,lambsquarters; [7],80
same,"Plant response rating, Lambsquarters",lambsquarters; [3],90
same,Lambsquarters plant response rating,lambsquarters; [6],100
same,"Plant response rating, Lambsquarters",lambsquarters; [5],80
same,"Plant response rating, Surinam Grass",Surinam grass; [3],20
same,Surinam Grass plant response rating,Surinam grass; [6],40
same,"Plant response rating, Surinam Grass",Surinam grass; [5],0
same,Corn plant response rating,corn; [7],20
same,"Plant response rating, Corn",corn; [3],30
same,Corn plant response rating,corn; [6],0
CCc1nc(C(C)(C)C)sc1C(=O)Nc1cccc(C(=O)NC(C)(C)C)n1 [Compound 216],Blackgrass plant response rating,blackgrass; [2],0
same,Blackgrass plant response rating,blackgrass; [8],0
same,Pigweed plant response rating (0 to 100 scale),pigweed; [9],0
same,"Plant response rating, Pigweed",pigweed; [10],90
same,Pigweed plant response rating,pigweed; [4],0
same,Pigweed plant response rating,pigweed; [11],20
same,Morningglory plant response rating (0 to 100 scale),morningglory; [9],0
same,"Plant response rating, Morningglory",morningglory; [10],0
same,Morningglory plant response rating,morningglory; [4],0
same,Morningglory plant response rating,morningglory; [11],0
same,Velvetleaf plant response rating (0 to 100 scale),velvetleaf; [9],0
same,"Plant response rating, Velvetleaf",velvetleaf; [10],0
same,Velvetleaf plant response rating,velvetleaf; [4],0
same,Velvetleaf plant response rating,velvetleaf; [11],60
same,Barnyardgrass plant response rating,barnyardgrass,20
same,"Oat, Wild plant response rating",wild oat; [2],0
same,"Oat, Wild plant response rating",wild oat; [8],0
same,Ducksalad plant response rating,ducksalad,80
same,"Sedge, Umbrella plant response rating",[1],90
same,Rice plant response rating,rice,30
same,Wheat plant response rating,wheat; 125 g ai/ha,0
same,Wheat plant response rating,wheat; 500 g ai/ha,10
same,"Foxtail, Giant plant response rating (0 to 100 scale)",giant foxtail; [9],0
same,"Plant response rating, Foxtail, Giant",giant foxtail; [10],60
same,"Foxtail, Giant plant response rating",giant foxtail; [4],0
same,"Foxtail, Giant plant response rating",giant foxtail; [11],20
same,Cocklebur plant response rating (0 to 100 scale),cocklebur; [9],0
same,"Plant response rating, Cocklebur",cocklebur; [10],0
same,Cocklebur plant response rating,cocklebur; [4],0
same,Cocklebur plant response rating,cocklebur; [11],70
same,Lambsquarters plant response rating (0 to 100 scale),lambsquarters; [9],90
same,"Plant response rating, Lambsquarters",lambsquarters; [10],100
same,Lambsquarters plant response rating,lambsquarters; [4],0
same,Lambsquarters plant response rating,lambsquarters; [11],0
same,Surinam Grass plant response rating (0 to 100 scale),Surinam grass; [9],0
same,"Plant response rating, Surinam Grass",Surinam grass; [10],70
same,Surinam Grass plant response rating,Surinam grass; [4],0
same,Surinam Grass plant response rating,Surinam grass; [11],20
same,Corn plant response rating (0 to 100 scale),corn; [9],0
same,"Plant response rating, Corn",corn; [10],0
same,Corn plant response rating,corn; [4],0
same,Corn plant response rating,corn; [11],10
CCn1nc(C(C)(C)C)cc1C(=O)Nc1cccc(C(=O)NCCF)c1 [Compound 45],Blackgrass plant response rating,"blackgrass; Postemergence, 125 g ai/ha",10
same,"Plant response rating, Blackgrass","blackgrass; Postemergence, 500 g ai/ha",20
same,"Plant response rating, Pigweed",pigweed; [3],100
same,Pigweed plant response rating,pigweed; [6],100
same,"Plant response rating, Pigweed",pigweed; [5],100
same,Morningglory plant response rating,morningglory; [7],40
same,"Plant response rating, Morningglory",morningglory; [3],90
same,Morningglory plant response rating,morningglory; [6],30
same,"Plant response rating, Morningglory",morningglory; [5],10
same,"Plant response rating, Velvetleaf",velvetleaf; [3],70
same,Velvetleaf plant response rating,velvetleaf; [6],100
same,"Plant response rating, Velvetleaf",velvetleaf; [5],20
same,Barnyardgrass plant response rating,barnyardgrass,80
same,"Oat, Wild plant response rating","wild oat; Postemergence, 125 g ai/ha",0
same,"Plant response rating, Oat, Wild","wild oat; Postemergence, 500 g ai/ha",20
same,Ducksalad plant response rating,ducksalad,80
same,"Sedge, Umbrella plant response rating",[1],70
same,Rice plant response rating,rice,70
same,"Plant response rating, Wheat",wheat; 500 g ai/ha,30
same,"Foxtail, Giant plant response rating",giant foxtail; [7],20
same,"Plant response rating, Foxtail, Giant",giant foxtail; [3],30
same,"Foxtail, Giant plant response rating",giant foxtail; [6],100
same,"Plant response rating, Foxtail, Giant",giant foxtail; [5],10
same,Cocklebur plant response rating,cocklebur; [7],20
same,"Plant response rating, Cocklebur",cocklebur; [3],80
same,Cocklebur plant response rating,cocklebur; [6],80
same,Lambsquarters plant response rating,lambsquarters; [7],80
same,"Plant response rating, Lambsquarters",lambsquarters; [3],90
same,Lambsquarters plant response rating,lambsquarters; [6],100
same,"Plant response rating, Lambsquarters",lambsquarters; [5],100
same,"Plant response rating, Surinam Grass",Surinam grass; [3],30
same,Surinam Grass plant response rating,Surinam grass; [6],50
same,"Plant response rating, Surinam Grass",Surinam grass; [5],20
same,Corn plant response rating,corn; [7],20
same,"Plant response rating, Corn",corn; [3],30
same,Corn plant response rating,corn; [6],30
